In patent publication US20030215817A1, “Modulation of gene expression in formation of fatty atherosclerotic lesions” (priority 2003, published 2003):
Counter-ions that a name gives are not always drawn.

Key:
[1] = tested on: REC1_2 (MspI AATC 108) mRNA; assay: quantified RT-PCR, Rec1_2; assay type: in vivo, rabbit; details: for Relative Abundance Rec1_2, 500 pg F: hypercholesterolemic plus lercanidipine racemate, eight weeks, H2 (normocholesterolemic)=1.0
Experimental: (§1) Nineteen of the isolated DST clones were further validated using RT-PCR analyses; the data are presented in FIGS. 6-24 and in Tables 5-23, below. For each DST examined, the optimal annealing temperature and reagent conditions were determined for the corresponding set of primers (see Table 25) based on results from a preliminary experiment. In eight separate reactions, each set of primers was assayed to find the optimal conditions by adjusting the following four parameters: primer concentration, dNTP concentration, MgCl2 concentration, and number of Taq polymerase units. Once optimal conditions were determined, each DST was run in duplicate multiple simultaneous reactions which usually included at least four dilutions of template (cDNA library), plus control reactions lacking template, and six sequential data points for numbers of cycles.
(§2) Reactions were performed using “Hot Start” PCR with the Clontech TaqStart antibody system (Cat. #5400-1). Each reaction contained 1 ml of the cDNA library dilution as template, determined amounts of AmpliTaq DNA polymerase (cat. #N808-0156), MgCl2, dNTPs (GibcoBRL cat. #10297-018), primer, and Clontech TaqStart Antibody in a 20 ml final reaction volume using 10×Taq buffer II (without MgCl2). Typically, a master mix containing all components except the template was prepared and aliquoted. Various templates were then added to these master mix samples and 20 ml volumes were subsequently dispensed into individual reaction tubes. At various times during the PCR run, tubes were removed sequentially on a predetermined schedule in order to quantitate expression of the target DST over a “window” of cycle times. After amplification, the samples were quantified via fluorimetry.
(§3) PCR was performed at annealing temperatures that were five degrees above the average melting temperature of each primer pair. For primers greater than 10 bases (in a 0.05M salt solution), melting temperature was calculated using the following formula: Tm=59.9+41[% GC]−[675/Primer Length], where %GC is the decimal value. Following determination of the average melting temperature of the primer pair, the annealing temperature was determined by adding five degrees to the average melting temperature. PCR was performed using the following program: 1) 95 degrees Celsius, 3 minutes; 2) 95 degrees Celsius, 30 seconds; 3) TM+5 degrees Celsius, 30 seconds; 4) 72 degrees Celsius, for a time dependent on target length at 16 bp/second; 5) repeat steps 2-4 33 more cycles; 6) 72 degrees Celsius, 3 minutes; 7) 14 degrees Celsius, forever.
(§4) Following temperature cycling, 2 ml of the PCR reaction was added to 140 ml of a 1:280 dilution of PicoGreen (Molecular Probes cat. #P-11495 (10×100 ml)) in TE pH 7.5 in a 96-well Costar UV microtiter plate (Fisher cat. #07-200623). The samples were mixed gently for 1.5 minutes and allowed to equilibrate at room temperature in the dark for 15 minutes. The concentration of the PCR products was quantified by fluorimetry using a PerSeptive Biosystems CytoFluor series 4000 multi-well plate reader.
(§5) Background fluorescence was determined by using duplicate control samples that were cycled with all reaction components except the template. The mean value from these duplicate background control samples was subtracted from the corresponding experimental values prior to analyzing results. The sensitivity of the PicoGreen dsDNA assay is reported to be 250 pg/ml (50 pg dsDNA in a […] assay volume) using a fluorescence microplate reader such as was used in these measurements. […]

[2] = tested on: REC1_3 (MspI ACGG 162) mRNA; assay: quantified RT-PCR, Rec1_3; assay type: in vivo, rabbit; details: for Relative Abundance Rec1_3, 500 pg F: hypercholesterolemic plus lercanidipine racemate, eight weeks, H2 (normocholesterolemic)=1.0
Experimental: as §1, §2, §3, §4, §5

REC1_5 (AGTG 184) mRNA = assay: quantified RT-PCR, Rec1_5; assay type: in vivo, rabbit; details: for Relative Abundance Rec1_5, 100 pg F: hypercholesterolemic plus lercanidipine racemate, eight weeks, H2 (normocholesterolemic)=1.0
Experimental: as §1, §2, §3, §4, §5

REC1_17 (TCGT 199) mRNA = assay: quantified RT-PCR, Rec1_17; assay type: in vivo, rabbit; details: for Relative Abundance Rec1_17, 20 pg F: hypercholesterolemic plus lercanidipine racemate, eight weeks, H2 (normocholesterolemic)=1.0
Experimental: as §1, §2, §3, §4, §5

[3] = arterial blood pressure in treated rabbits; assay type: in vivo; details: doses utilized (3 mg/kg/week subcutaneously)
Experimental: The daily doses of cholesterol (1.6 g) were given in the morning (at 08.00 hours) each mixed in 20 g of food pellets. Normal chow, up to 150 g, was added after all the cholesterol-rich diet was eaten (usually within 30 minutes). The hydrochloride salt of lercanidipine or (R)-lercanidipine (Recordati, Milano, Italy) was administered subcutaneously as a solution in 50% propylene glycol. […] Animals had free access to water and were kept in a 12 hour light-dark cycle. Blood was drawn from the central ear artery at day 29 after treatment, started in order to monitor the lercanidipine plasma level at 24 hour post-dose.

[4] = tested on: cholesterol acyl transferase; details: Soma et al. 1998; cited from earlier work
Rec1_24 (CCGG 232) mRNA = assay: quantified RT-PCR, Rec1_24; assay type: in vivo, rabbit; details: for Relative Abundance Rec1_24, 100 pg D: hypercholesterolemic plus lercanidipine R (−), eight weeks, H2 (normocholesterolemic)=1.0
Experimental: as §1, §2, §3, §4
Background fluorescence was determined by using duplicate control samples that were cycled with all reaction components except the template. The mean value from these duplicate background control samples was subtracted from the corresponding experimental values prior to analyzing results. The sensitivity of the PicoGreen dsDNA assay is reported to be 250 pg/ml (50 pg dsDNA in a […] assay volume) using a fluorescence microplate reader such as was used in these measurements.
FIG. 23 is a graphical representation of the results of RT-PCR using 100 pg of clone REC1—24 template, in which the amount of PCR product (measured in arbitrary fluorescence units) is plotted against number of cycles, where polyA enriched mRNA was extracted from aortas of rabbits that were normocholesterolemic (filled diamonds, “H2”) and hypercholesterolemic plus lercanidipine R (−), eight weeks (filled squares, “D”).

Question: Which results are given for `COC(=O)C1=C(C)NC(C)=C(C(=O)OC(C)(C)CN(C)CCC(c2ccccc2)c2ccccc2)C1c1cccc([N+](=O)[O-])c1` (racemic) [lercanidipine, lercanidipine hydrochloride]?
Answer: Relative Abundance Rec1_2, 500 pg F ([1]; cycle 22): 2.7; Relative Abundance Rec1_2, 500 pg F ([1]; cycle 24): 0.6; Relative Abundance Rec1_2, 500 pg F ([1]; cycle 26): 5.0; Relative Abundance Rec1_2, 500 pg F ([1]; cycle 28): 6.6; Relative Abundance Rec1_2, 500 pg F ([1]; cycle 30): 2.5; Relative Abundance Rec1_2, 500 pg F ([1]; cycle 32): 1.6; expression of Rec1_2 at 8 weeks (RT-PCR study), in words ([1]; hypercholesterolemic animals receiving lercanidipine racemate): elevated; Relative Abundance Rec1_3, 500 pg F ([2]; cycle 26): 0.0; Relative Abundance Rec1_3, 500 pg F ([2]; cycle 28): 0.0; Relative Abundance Rec1_3, 500 pg F ([2]; cycle 30): 0.0; Relative Abundance Rec1_3, 500 pg F ([2]; cycle 32): 0.1; Relative Abundance Rec1_3, 500 pg F ([2]; cycle 34): 0.4; expression of Rec1_3 at 8 weeks (RT-PCR study), in words ([2]; hypercholesterolemic animals receiving lercanidipine racemate, compared with hypercholesterolemic animals at 14 days): lower; Relative Abundance Rec1_5, 100 pg F (REC1_5 (AGTG 184) mRNA; cycle 24): 512.5; Relative Abundance Rec1_5, 100 pg F (REC1_5 (AGTG 184) mRNA; cycle 26): 805.0; Relative Abundance Rec1_5, 100 pg F (REC1_5 (AGTG 184) mRNA; cycle 28): 0.2; Relative Abundance Rec1_5, 100 pg F (REC1_5 (AGTG 184) mRNA; cycle 30): 0.6; Relative Abundance Rec1_5, 100 pg F (REC1_5 (AGTG 184) mRNA; cycle 32): 1.1; Relative Abundance Rec1_5, 100 pg F (REC1_5 (AGTG 184) mRNA; cycle 34): 1.0; expression of Rec1_5 at 8 weeks (RT-PCR study), in words (REC1_5 (AGTG 184) mRNA; hypercholesterolemic animals receiving lercanidipine racemate, at 28-30 cycles): decreased; Relative Abundance Rec1_17, 20 pg F (REC1_17 (TCGT 199) mRNA; cycle 24): 0.01; Relative Abundance Rec1_17, 20 pg F (REC1_17 (TCGT 199) mRNA; cycle 26): 0.00; Relative Abundance Rec1_17, 20 pg F (REC1_17 (TCGT 199) mRNA; cycle 28): 0.09; Relative Abundance Rec1_17, 20 pg F (REC1_17 (TCGT 199) mRNA; cycle 30): 0.08; Relative Abundance Rec1_17, 20 pg F (REC1_17 (TCGT 199) mRNA; cycle 32): 0.21; Relative Abundance Rec1_17, 20 pg F (REC1_17 (TCGT 199) mRNA; cycle 34): 0.43; expression of Rec1_17 at 8 weeks (RT-PCR study), in words (REC1_17 (TCGT 199) mRNA; hypercholesterolemic animals receiving lercanidipine): decreased; effect on arterial blood pressure [3]: did not affect; cholesterol acyl transferase activity [4]: modulate

Question: For `COC(=O)C1=C(C)NC(C)=C(C(=O)OC(C)(C)CN(C)CCC(c2ccccc2)c2ccccc2)[C@@H]1c1cccc([N+](=O)[O-])c1.Cl` (single isomer, unassigned) [(R)-lercanidipine], which “Relative Abundance Rec1_24, 100 pg D” value (Rec1_24 (CCGG 232) mRNA; cycle 24) is on record?
Answer: The value was 0.3.

Question: What about the “Relative Abundance Rec1_24, 100 pg D” value (Rec1_24 (CCGG 232) mRNA; cycle 26) of the same compound?
Answer: Its value is 0.5.

Question: And the “Relative Abundance Rec1_24, 100 pg D” value (Rec1_24 (CCGG 232) mRNA; cycle 28)?
Answer: The value was 0.7.

Question: And the “Relative Abundance Rec1_24, 100 pg D” value (Rec1_24 (CCGG 232) mRNA; cycle 30)?
Answer: Its value is 0.9.

Question: And the “Relative Abundance Rec1_24, 100 pg D” value (Rec1_24 (CCGG 232) mRNA; cycle 32)?
Answer: The value was 0.9.

Question: What about the “Relative Abundance Rec1_24, 100 pg D” value (Rec1_24 (CCGG 232) mRNA; cycle 34) of the same compound?
Answer: Its value is 1.1.

Question: What about the “expression of Rec1_24 at 8 weeks (RT-PCR study), in words” value (Rec1_24 (CCGG 232) mRNA; hypercholesterolemic animals receiving lercanidipine R (−) compared to normocholesterolemic animals) of the same compound?
Answer: The value was “generally somewhat decreased”.
